Measurements: patent US12613249B2 (THE ROYAL INSTITUTION FOR THE ADVANCEMENT OF LEARNING / …, priority 2019, dated 2026)
Square brackets hold non-standard residues; d marks the D form. Peptide text beside a SMILES is read from it.

Experiments:
[1] = Brain homogenate concentrations after single oral dose, LC-MS; format: in vivo, C57BL/6 mice; conditions: for maximum brain concentration / peak brain concentration: brain homogenate; for maximum brain concentration / time of maximum brain concentration: female mice
Method: An internal standard (IS) for the reliable quantification of D-AIP in biological matrices was prepared by dimethylation to produce an analog of D-AIP by using a protocol previously described (Boersema et al., 2009, Nat Protoc, 4:484-494). Standard solutions (1 mg/mL) each of D-AIP and IS were prepared in deionized water and 100% methanol respectively. 100 μL of IS working solution was prepared at 50 ng/ml added to 25 μL of the sample (plasma or brain homogenate). The sample was vortexed for approximately 5 s and let stand for 10 min, then centrifuged at 16,000 g for 10 min. The supernatant was transferred to a 13×100 polypropylene tube and evaporated to dryness at 50° C. under gentle stream of nitrogen. The dry extract was re-suspended with 40 μL of 0.1% (v/v) formic acid (Sigma Aldrich, St-Louis, MO, USA) in deionized water and transferred to an injection vial for analysis.
Thermo Scientific TSQ Quantiva Triple Quadrupole mass spectrometer (San Jose, CA, USA) was interfaced with the Thermo Scientific UltiMate 3000 XRS UHPLC system (San Jose, CA, USA) using a pneumatic assisted heated electrospray ion source. Data acquisition and analysis were performed using Xcalibur 4.0 (San Jose, CA, USA).
[…]radient elution was used with a Thermo Scientific BioBasic-8 column (100×2 mm I.D. 5 μm) operating at 40° C. The initial mobile phase condition consisted of 0.1% formic acid in acetonitrile and 0.1% formic acid in deionized water at a ratio of 5:95, respectively and this ration was maintained for 1 min. A linear gradient was applied from 1 to 5 min up to a ratio of 50:50 and maintained for 1 min. At 6.1 min, the mobile phase composition was reverted to 5:95 and the column was allowed to equilibrate for 7.9 min for a total run time of 14 min. The D-AIP and IS eluted at 4.7 and 4.8 min respectively at a fixed flow rate of 0.2 mL/min. The eluent was diverted to waste for the first minute and last six minutes. Extracted sample (5 μL) was injected and the acquisition time was set to 14 min.
The mass spectrometer was interfaced with ultra-high-performance liquid chromatography (UHPLC) system using a pneumatic assisted heated electrospray ion source with detection in positive ion mode using […] (MRM). For proper optimization of the mass spectrometer, standard solutions of D-AIP and IS were infused. The obtained source parameters were 50 and 15 arbitrary units respectively while using nitrogen for the sheath and auxiliary gases. The HESI electrode was set to 3500 V, capillary and vaporizer temperature were both set to 300° C. respectively. The MS/MS parameters were optimized using the doubly charged species. Argon was used as collision gas at a pressure of 2.5 mTorr. The precursor-ion reaction for D-AIP were set to 471.4→[591.8+648.3] and for the IS the MRM transitions were set to 499.4→[425.8+468.8+476.8]
Standard solution of D-AIP (1 mg/mL) was diluted in various volumes of deionized water to obtain series of standard working solutions. Calibration standards were prepared by fortifying the mouse plasma and mouse brain homogenate with the standard working solutions at 10% (v/v) to enable analytical concentration range of 1.00 to 1000 ng/ml. The method is linear using a linear regression weighted 1/x analysis, a value of R^2≥0.9979 was obtained for plasma and R^2≥0.9991 for brain homogenate. Samples were injected in duplicate with the calculated in each case and concentrations were processed from the equation obtained from the respective calibration curves using Xcalibur 4.0 software.
Animal care and all animal experiments were undertaken with federal guidelines and approval of the Institutional Animal Ethical Committee of McGill University, Montreal, Canada (Protocol Application Number: 2017-7880) and adequate measures were taken to minimize pain or discomfort. […]

[2] = Ex-vivo stability in mouse liver S9-fraction, MALDI-TOF MS; format: in vitro ADME, C57BL/6 mice
Method: (§1) The stability of D-AIP in mouse plasma, blood and liver S-9 fraction was investigated to ascertain the metabolic resistance towards proteases and enzymatic activities in these matrices. Whole mouse blood obtained from healthy C57BL/6 male and female mice (6 mice in total) were collected in lithium heparin containing tubes, pooled and stored at 4° C. prior to its use. A fraction of the pooled blood was immediately centrifuged at 1500×g for 10 min at 4° C. to obtain the plasma. The whole blood and plasma samples were spiked with PBS (as control) or AIP (L-AIP, D-AIP or sD-AIP respectively) to make a final concentration of 1 ug/mL and incubated at 37° C. Initial samples were withdrawn to represent t=0 prior to incubation and others were withdrawn 1, 3 and 24 h respectively. Fresh mouse liver also obtained from C57BL/6 male and female mice were pooled, homogenized in 0.15 M Potassium chloride (KCl) and centrifuged at 9000×g. The supernatant represents liver homogenate (S-9) fraction which was mixed with other buffers to formulate the liver S-9 mix as previously described (Kolrep et al., 2017, Toxicol In Vitro, 42:161-170). Liver S-9 mix were spiked with AIP to make a final concentration of 1 μg/mL (L-AIP, D-AIP or sD-AIP respectively) and incubated at 37° C. Just after the addition of NADPH, 100 μL aliquot which represents t=0 samples were withdrawn and others were sampled accordingly at predetermined time points. 400 μL of ice cold MeOH was added to the spiked plasma, blood or liver S-9 fraction respectively, to precipitate the microsomal protein. The samples were then vigorously mixed for 30 s to facilitate extraction and centrifuged for 10 minutes at 13000 rpm, the supernatant was subjected to sample clean up by C18 ZipTip (EMD Millipore Corporation), the eluates were spotted with CHCA matrix on the ground steel MALDI-TOF target and analyzed with MALDI-TOF MS. Applying the t=0 peak area as 100% the intensities of the other time points were compared relatively for interpretation. […]

[3] = Ex-vivo stability in mouse whole blood, MALDI-TOF MS; format: in vitro ADME
Method: as §1

C[C@H](O)[C@@H](NC(=O)CNC(=O)[C@H](N)CCCNC(=N)N)C(=O)N[C@H](Cc1ccccc1)C(=O)N[C@H](CCC(=O)O)C(=O)NCC(=O)N[C@H](CCCCN)C(=O)N[C@H](Cc1ccccc1)C(=O)O [D-AIP] (H-[dR]G[dT][dF][dE]G[dK][dF]-OH; N-terminus and C-terminus assumed)
tissue level at time at 4 h ([1]; C57BL/6, mouse, brain, male mice, highest dose (100 mg/kg oral), after 4 h, read-out: brain concentration during elimination): 38.5 ng/g | maximum brain concentration ([1]; single oral dose 10 mg/kg, at 4 h): 28.91 ng/g | maximum brain concentration ([1]; single oral dose 30 mg/kg, at 2 h): 136.29 ng/g | maximum brain concentration ([1]; single oral dose 100 mg/kg, at 2 h): 707.95 ng/g | peak brain concentration ([1]; male mice, single oral dose 10 mg/kg, at 4 h): 133.15 ng/g | peak brain concentration ([1]; male mice, single oral dose 30 mg/kg, at 2 h): 262.00 ng/g | peak brain concentration ([1]; male mice, single oral dose 100 mg/kg, at 0.5 h): 509.24 ng/g | crossing of the BBB ([1]; female and male mice, single oral doses 10, 30, 100 mg/kg): crossed the BBB and reached the brain | time of maximum brain concentration ([1]; single oral dose 10 mg/kg): 4 h | time of maximum brain concentration ([1]; single oral dose 30 mg/kg): 2 h | time of maximum brain concentration ([1]; single oral dose 100 mg/kg): 2 h | time of peak brain concentration ([1]; male mice, single oral dose 10 mg/kg): 4 h | time of peak brain concentration ([1]; male mice, single oral dose 30 mg/kg): 2 h | time of peak brain concentration ([1]; male mice, single oral dose 100 mg/kg): 0.5 h | stability, MALDI-TOF MS signal (941 m/z) ([2]; mouse liver S9-fraction, 37° C., 24 h): relatively stable over 24 h | signal intensity compared to the unincubated sample ([2]; mouse liver S-9 fraction, after 24 h): three-fold decreased intensity | stability, MALDI-TOF MS signal (941 m/z) ([3]; 37° C., 24 h): relatively stable up to 24 h | metabolised at 24 h, 1 ug/mL ([3]; both sexes, C57BL/6, 24 h incubation, read-out: decrease of signal): ~50%
